Like-named read-outs stand apart in the source and are kept apart here.
Experiments:
[1] = test system: RIF1 tumors; test: Radiosensitizing effect on experimental tumors in mice (tumor size after irradiation, Experiment 4); format: in vivo, C3H/Heston-strain female mice; settings: for Mean tumor diameter (mm): n=7; for Sensitizing effect: relative to irradiation alone
Protocol: RIF1 tumor cells ([…]) were inoculated intradermally into the right thighs of C3H/Heston-strain female mice (8 weeks old). When the tumor sizes reached 6.0 to 10.0 mm after inoculation of the tumor cells, irradiation was carried out with 2,500 rad/min. of an electron beam, and thereafter N^6-acetyl-3'-dAdo, N^6-butyryl-3'-dAdo, N^6-hexanoyl-3'-dAdo, and N - octanoyl-3'-dAdo, each dissolved in physiological saline solution, were administered intraperitoneally in a dose of 100 mg/kg. After the treatments, the tumor sizes in terms of diameters in three-axial directions were measured on the 10th day and the 20th day (9th day and the 21st day only in case of N^6-butyryl-3'-dAdo).

[2] = test system: EMT-6 tumors; test: Radiosensitizing effect on experimental tumors in mice (cure percentages and TCD50, Experiment 3); format: in vivo, BALB/c-strain female mice; settings: for TCD50: 100 mg/kg intraperitoneally after 32 MeV electron beam irradiation, control 2400; for Cure number/Number treated (%) / Cure number/Number treated: 100 mg/kg intraperitoneally after irradiation; for Cure number/Number treated (%): cure percentage; for Cure number/Number treated: observation longer than 90 days; for TCD50 (ratio): ratio to control (1.0)
Protocol: EMT-6 tumor cells ([…]) were inoculated intradermally into the right thighs of BALB/c-strain female mice (8 weeks old). When the tumor sizes reached 5.5 to 8.0 mm after inoculation of the tumor cells, irradiation was locally carried out with 1,000 rad to 2,700 rad of 32 MeV electron beam under no anesthesia, and thereafter 3'-dAdo and N^6-butyryl-3'-dAdo, each dissolved in physiological saline solution, were administered intraperitoneally in a dose of 100 mg/kg. After the treatments, observation was continued for longer than 90 days, and the cure percentages were determined for comparison with the control group. [formula] [formula]

[3] = Acute toxicity test; design: species or system ICR mice; settings: mouse, in vivo, ip
Protocol: Various quantities of N -butyryl-3'-dAdo were administered intraperitoneally to ICR mice (male, 8-weeks old, 10 mice for each group) in doses of 250 mg to 1,000 mg/kg, and the mice were subjected to observation for a week.

[4] = test system: Chinese hamster-HA-1 cells; test: Radiosensitizing effect on the tumor cells in culture (PLDR inhibition, colony forming ability after X-rays); format: cell-based
Protocol: Cells under stationary phase, prepared by planting 2 x 10^5 cells/well of Chinese hamster-HA-1 cells in a multi-well dish and exchanging cultural medium every day starting on the third day and thereafter were irradiated with 1,000 R of X-rays. Immediately after radiation, N6-butyryl-3'-dAdo in Hanks' balanced salt solution were administered. Then, after elapse of various times, the cells were taken off with trypsin, and a suitable number of cells were transferred into petri dishes for testing colony forming ability and plating efficiencies. The percentages of survival were calculated with corrections by the plating efficiencies with the pharmaceutical agents alone.

[5] = test system: EMT-6 tumors; test: Radiosensitizing effect on experimental tumor in mice (tumor size after local irradiation, Experiment 2); format: in vivo, BALB/c-strain female mice; settings: for Mean tumor diameter (mm): 1,500 rad 32 MeV electron beam, n = 9; for Sensitizing effect: diameter ratio with agent / diameter ratio with irradiation alone
Protocol: EMT-6 tumor cells (2 x 10^5) were inoculated intradermally into the right thighs of BALB/c-strain female mice (8 weeks old, 6 or more mice for each group). When the tumor size reached 5.5 to 7.5 mm in diameter after inoculation of the tumor cells, local irradiation with a 32 MeV electron beam was carried out at 1,500 rad under no anesthesia and thereafter N^6-butyryl-3'-dAdo dissolved in physiological saline solution, was administered intraperitoneally to each mouse in 100 mg/kg. On the 9th day and 20th day after these treatments, t tumor sizes were measured in tri-dimensional diameters, and compared with the control group with respect to the following items: [formula] [formula] The results are shown in Table 2, in which "cure" means that the tumors completely vanished during the observation period.

[6] = test system: EMT-6 tumors; test: Enhancement of the effect of anti-tumor agents on experimental tumors in mice (Experiment 5); format: in vivo, BALB/c-strain mice; settings: 14th day after treatment
Protocol: EMT-6 tumor cells (1 x 10^6) were inoculated intradermally into the right thighs of BALB/c-strain mice (8 weeks old). On the 12th day after inoculation of the tumor cells and thereafter, each chemical in a physiological saline solution was administered intrapenitoneally to each mouse four times a week in the indicated doses for respective agents. The pharmaceutical agents of the present invention were administered one hour after administration of the anti-tumor agents. After commencement of the treatment with pharmaceutical agents, the tumor sizes were measured every other day and compared with those of the control group.

[7] = 10th day after treatment, 2500 rad, then 100 mg/kg intraperitoneally
[8] = 20th day after treatment, 2500 rad, then 100 mg/kg intraperitoneally
[9] = 20th day after treatment, but 21st day for this compound
[10] = column head 10th day after treatment, but 9th day for this compound
[11] = FT-207 100mg/kg x 7 plus enhancer 50mg/kg x 7

**Q.** For `CCCCCCCC(=O)Nc1ncnc2c1ncn2[C@@H]1O[C@H](CO)C[C@H]1O` [N^6-octanoyl-3'-dAdo], which Diameter ratio [1, 7] is on record?
**A.** Its Diameter ratio is 1.04±0.04.

**Q.** And the “Mean tumor diameter (mm)” value [1, 7]?
**A.** Its value is 7.50±0.37 mm.

**Q.** And the Sensitizing effect ([1]; 10th day after treatment)?
**A.** Its Sensitizing effect is 0.88.

**Q.** And the Diameter ratio [1, 8]?
**A.** Its Diameter ratio is 1.33±0.02.

**Q.** And the “Mean tumor diameter (mm)” value [1, 8]?
**A.** The value was 9.61±0.46 mm.

**Q.** What about the Sensitizing effect ([1]; 20th day after treatment) of the same molecule?
**A.** The Sensitizing effect was 0.75.

**Q.** With `CCCCCC(=O)Nc1ncnc2c1ncn2[C@@H]1O[C@H](CO)C[C@H]1O` [N^6-hexanoyl-3'-dAdo] as the molecule, how does the Diameter ratio [1, 7] read?
**A.** Its Diameter ratio is 1.11±0.05.

**Q.** And the “Mean tumor diameter (mm)” value [1, 7]?
**A.** Its value is 7.90±0.47 mm.

**Q.** What about the Sensitizing effect ([1]; 10th day after treatment) of the same molecule?
**A.** The Sensitizing effect was 0.94.

**Q.** And the Diameter ratio [1, 8]?
**A.** Its Diameter ratio is 1.46±0.05.

**Q.** And the “Mean tumor diameter (mm)” value [1, 8]?
**A.** The value was 10.37±0.42 mm.

**Q.** What about the Sensitizing effect ([1]; 20th day after treatment) of the same molecule?
**A.** The Sensitizing effect was 0.82.

**Q.** What does the source list for `CC(=O)Nc1ncnc2c1ncn2[C@@H]1O[C@H](CO)C[C@H]1O` [N^6-acetyl-3'-dAdo]?
**A.** Diameter ratio [1, 7]: 1.12±0.06; Mean tumor diameter (mm) [1, 7]: 7.86±0.55 mm; Sensitizing effect ([1]; 10th day after treatment): 0.95; Diameter ratio [1, 8]: 1.49±0.06; Mean tumor diameter (mm) [1, 8]: 10.39±0.51 mm; Sensitizing effect ([1]; 20th day after treatment): 0.84

**Q.** Which results are given for `Nc1ncnc2c1ncn2[C@@H]1O[C@H](CO)C[C@H]1O` [3'-dAdo, 3'-deoxyadenosine, reference compound]?
**A.** TCD50 [2]: 1600; Cure number/Number treated (%) ([2]; 1,000 rad): 17%; Cure number/Number treated ([2]; 1,000 rad): 3/18; Cure number/Number treated (%) ([2]; 1,500 rad): 48%; Cure number/Number treated ([2]; 1,500 rad): 14/29; Cure number/Number treated (%) ([2]; 2,100 rad): 79%; Cure number/Number treated ([2]; 2,100 rad): 11/14; Cure number/Number treated (%) ([2]; 2,700 rad): 67%; Cure number/Number treated ([2]; 2,700 rad): 10/15; TCD50 (ratio) [2]: 0.67; LD50 at 168 h ([3]; intraperitoneally, ICR mice male, observation for a week, read-out: LD50): 280 mg/kg

**Q.** What does the source list for `CCCC(=O)Nc1ncnc2c1ncn2[C@@H]1O[C@H](CO)C[C@H]1O` [N^6-butyryl-3'-dAdo]?
**A.** Plating efficiency (%) After 1 hour ([4]; 40 µg/ml given immediately after 1,000 R of X-rays, stationary phase cells, 1 hour after irradiation): 1.4%; Plating efficiency (%) After 4 hours ([4]; 40 µg/ml given immediately after 1,000 R of X-rays, stationary phase cells, 4 hours after irradiation): 2.2%; Plating efficiency (%) After 7 hours ([4]; 40 µg/ml given immediately after 1,000 R of X-rays, stationary phase cells, 7 hours after irradiation): 2.4%; inhibition of repair (PLDR) after irradiation with X-rays ([4]; result in words, from Table 1): inhibit repair (PLDR); toxicity, as examined by plating efficiencies ([4]; result in words, agent alone): Substantially no toxicity was observed; Diameter ratio [1, 9]: 1.35±0.08; Mean tumor diameter (mm) ([1]; 20th day after treatment, but 21st day for this compound, 2500 rad, then 100 mg/kg intraperitoneally): 10.28±0.36 mm; Sensitizing effect [1, 9]: 0.76; Diameter ratio [1, 10]: 0.90±0.08; Mean tumor diameter (mm) ([1]; column head 10th day after treatment, but 9th day for this compound, 2500 rad, then 100 mg/kg intraperitoneally): 6.71±0.63 mm; Sensitizing effect [1, 10]: 0.76; Mean tumor diameter (mm) ([5]; 9 days after treatment, then 100 mg/kg intraperitoneally): 5.36±1.13 mm; Diameter ratio ([5]; 9 days after treatment, 1,500 rad, then 100 mg/kg intraperitoneally): 0.83±0.18; Sensitizing effect ([5]; 9 days after treatment): 0.86; Mean tumor diameter (mm) ([5]; 20 days after treatment, then 100 mg/kg intraperitoneally): 0.0±0.0 mm; Cured cases ([5]; 20 days after treatment, cure = tumors completely vanished during the observation period, 1,500 rad + 100 mg/kg i.p.): 9/9; Sensitizing effect ([5]; 20 days after treatment): 0.00; TCD50 [2]: 1080; Cure number/Number treated (%) ([2]; 1,000 rad): 40%; Cure number/Number treated ([2]; 1,000 rad): 6/15; Cure number/Number treated (%) ([2]; 1,500 rad): 65%; Cure number/Number treated ([2]; 1,500 rad): 13/20; Cure number/Number treated (%) ([2]; 2,100 rad): 93%; Cure number/Number treated ([2]; 2,100 rad): 14/15; Cure number/Number treated (%) ([2]; 2,700 rad): 100%; Cure number/Number treated ([2]; 2,700 rad): 16/16; TCD50 (ratio) [2]: 0.45; Diameter ratio (mm) [6, 11]: 0.97±0.23; Diameter ratio, value in brackets (relative to control = 1.00) [6, 11]: 0.62; Mean tumor diameter (mm) ([6]; FT-207 100mg/kg x 7 plus enhancer 50mg/kg x 7 given one hour later, n = 5): 6.72±1.69 mm; Diameter ratio (mm) ([6]; enhancer alone, 50mg/kg x 7): 1.36±0.32; Diameter ratio, value in brackets (relative to control = 1.00) ([6]; enhancer alone, 50mg/kg x 7): 0.87; Mean tumor diameter (mm) ([6]; enhancer alone, 50mg/kg x 7 intraperitoneally, n = 5): 9.92±2.45 mm; Enhancing effect ([6]; ratio in combination / (ratio anti-tumor agent alone x ratio enhancer alone), FT-207 100mg/kg x 7 plus enhancer 50mg/kg x 7): 0.94; LD50 at 168 h [3]: 710 mg/kg

**Q.** For `O=c1[nH]c(=O)n(C2CCCO2)cc1F` (stereo not drawn) [FT-207, 1-(2-tetrahydrofuryl)-5-fluorouracil, reference compound], which “Diameter ratio, value in brackets (relative to control = 1.00)” value ([6]; anti-tumor agent alone, 100mg/kg x 7) is on record?
**A.** Its value is 0.76.

**Q.** What about the “Mean tumor diameter (mm)” value ([6]; anti-tumor agent alone, 100mg/kg x 7 intraperitoneally, n = 4) of the same molecule?
**A.** The value was 7.80±1.64 mm.

Source: patent EP0068268A1, “Enhancer of anti-tumour effect” (Yamasa Shoyu Kabushiki Kaisha, priority 1981, dated 1983)
